± gives the expanded uncertainty stated by the source.
Assay: osmotic coefficient (dimensionless); mn = molality of the nth substance listed, in mol/kg
Conditions: 298.15 K, Liquid, isopiestic method

Q: With `CC(C)C[C@H](N)C(=O)[O-].CCCCn1cc[n+](C)c1` [1-butyl-3-methylimidazolium L-leucinate] + O as the compound, how does the osmotic coefficient (m1 = 0) read?
A: 1 ± 0.0005

Q: What about the osmotic coefficient (m1 = 0.0117) of the same compound?
A: 0.9528 ± 0.0019

Q: And the osmotic coefficient (m1 = 0.0184)?
A: 0.9362 ± 0.0025

Q: What about the osmotic coefficient (m1 = 0.0387) of the same compound?
A: 0.9254 ± 0.0029

Q: And the osmotic coefficient (m1 = 0.0649)?
A: 0.9104 ± 0.0035

Q: What about the osmotic coefficient (m1 = 0.0795) of the same compound?
A: 0.9093 ± 0.0035

Q: And the osmotic coefficient (m1 = 0.1123)?
A: 0.9025 ± 0.0038

Q: What about the osmotic coefficient (m1 = 0.1532) of the same compound?
A: 0.8977 ± 0.004

Q: And the osmotic coefficient (m1 = 0.1914)?
A: 0.8982 ± 0.0039

Q: And the osmotic coefficient (m1 = 0.2319)?
A: 0.9005 ± 0.0039

Q: And the osmotic coefficient (m1 = 0.2687)?
A: 0.9029 ± 0.0038

Q: What about the osmotic coefficient (m1 = 0.3111) of the same compound?
A: 0.9101 ± 0.0035

Q: What about the osmotic coefficient (m1 = 0.3711) of the same compound?
A: 0.9187 ± 0.0031

Q: And the osmotic coefficient (m1 = 0.4373)?
A: 0.9255 ± 0.0029

Q: What about the osmotic coefficient (m1 = 0.4915) of the same compound?
A: 0.9328 ± 0.0026

Q: And the osmotic coefficient (m1 = 0.5503)?
A: 0.9423 ± 0.0022

Q: With `CC(C)[C@H](N)C(=O)[O-].CCCCn1cc[n+](C)c1` [1-butyl-3-methylimidazolium L-valinate] + O as the compound, how does the osmotic coefficient (m1 = 0) read?
A: 1 ± 0.0004

Q: And the osmotic coefficient (m1 = 0.013)?
A: 0.9595 ± 0.0016

Q: What about the osmotic coefficient (m1 = 0.0202) of the same compound?
A: 0.9384 ± 0.0024

Q: What about the osmotic coefficient (m1 = 0.0421) of the same compound?
A: 0.923 ± 0.003

Q: What about the osmotic coefficient (m1 = 0.0582) of the same compound?
A: 0.9121 ± 0.0034

Q: And the osmotic coefficient (m1 = 0.0723)?
A: 0.9019 ± 0.0038

Q: And the osmotic coefficient (m1 = 0.1086)?
A: 0.8899 ± 0.0043

Q: What about the osmotic coefficient (m1 = 0.1458) of the same compound?
A: 0.8851 ± 0.0045

Q: And the osmotic coefficient (m1 = 0.1932)?
A: 0.8794 ± 0.0047

Q: And the osmotic coefficient (m1 = 0.2434)?
A: 0.8759 ± 0.0048

Q: And the osmotic coefficient (m1 = 0.2848)?
A: 0.879 ± 0.0047

Q: What about the osmotic coefficient (m1 = 0.3283) of the same compound?
A: 0.8828 ± 0.0045

Q: What about the osmotic coefficient (m1 = 0.4013) of the same compound?
A: 0.8908 ± 0.0042

Q: And the osmotic coefficient (m1 = 0.4421)?
A: 0.8986 ± 0.0039

Q: And the osmotic coefficient (m1 = 0.5035)?
A: 0.9098 ± 0.0035

Q: And the osmotic coefficient (m1 = 0.576)?
A: 0.9279 ± 0.0028

Q: What does the source list for `CCCCn1cc[n+](C)c1.NCC(=O)[O-]` [1-butyl-3-methylimidazolium glycinate] + O?
A: osmotic coefficient (m1 = 0): 1 ± 0.004; osmotic coefficient (m1 = 0.0179): 0.941 ± 0.004; osmotic coefficient (m1 = 0.0266): 0.9408 ± 0.004; osmotic coefficient (m1 = 0.0509): 0.9167 ± 0.004; osmotic coefficient (m1 = 0.0737): 0.9076 ± 0.004; osmotic coefficient (m1 = 0.0978): 0.8916 ± 0.004; osmotic coefficient (m1 = 0.1314): 0.8739 ± 0.004; osmotic coefficient (m1 = 0.1811): 0.8658 ± 0.004; osmotic coefficient (m1 = 0.2166): 0.853 ± 0.004; osmotic coefficient (m1 = 0.263): 0.8465 ± 0.004; osmotic coefficient (m1 = 0.3181): 0.8432 ± 0.004; osmotic coefficient (m1 = 0.3693): 0.8407 ± 0.004; osmotic coefficient (m1 = 0.4305): 0.8405 ± 0.004; osmotic coefficient (m1 = 0.5055): 0.8474 ± 0.004; osmotic coefficient (m1 = 0.5791): 0.8523 ± 0.004; osmotic coefficient (m1 = 0.6439): 0.8526 ± 0.004

Q: Which osmotic coefficient (m1 = 0) does the source give for `CCCCn1cc[n+](C)c1.C[C@H](N)C(=O)[O-]` [3-butyl-1-methyl-1H-imidazolium L-alaninate] + O here?
A: 1 ± 0.0004

Q: What about the osmotic coefficient (m1 = 0.0134) of the same compound?
A: 0.9617 ± 0.0015

Q: And the osmotic coefficient (m1 = 0.0183)?
A: 0.9405 ± 0.0023

Q: And the osmotic coefficient (m1 = 0.0416)?
A: 0.9262 ± 0.0029

Q: What about the osmotic coefficient (m1 = 0.0612) of the same compound?
A: 0.9103 ± 0.0035

Q: What about the osmotic coefficient (m1 = 0.0821) of the same compound?
A: 0.9008 ± 0.0038

Q: What about the osmotic coefficient (m1 = 0.109) of the same compound?
A: 0.8865 ± 0.0044

Q: And the osmotic coefficient (m1 = 0.1518)?
A: 0.8725 ± 0.0049

Q: What about the osmotic coefficient (m1 = 0.1962) of the same compound?
A: 0.8661 ± 0.0052

Q: And the osmotic coefficient (m1 = 0.242)?
A: 0.8654 ± 0.0052

Q: What about the osmotic coefficient (m1 = 0.2834) of the same compound?
A: 0.863 ± 0.0053

Q: And the osmotic coefficient (m1 = 0.3192)?
A: 0.8594 ± 0.0054

Q: What about the osmotic coefficient (m1 = 0.3741) of the same compound?
A: 0.8633 ± 0.0053

Q: What about the osmotic coefficient (m1 = 0.4453) of the same compound?
A: 0.8672 ± 0.0051

Q: What about the osmotic coefficient (m1 = 0.5047) of the same compound?
A: 0.8715 ± 0.005

Q: What about the osmotic coefficient (m1 = 0.5755) of the same compound?
A: 0.8812 ± 0.0046

From the NIST ThermoML archive (doi:10.1021/je500772z)
